Source: the supplement of paper PMC10307832

What was measured:
Test in all cases: relative viability (nuclei count vs DMSO), 5 days (fraction); higher = more cells survive
[1] = compound: COc1cc(-c2nn([C@H]3CC[C@H](N4CCN(C(C)=O)CC4)CC3)c3ncnc(N)c23)ccc1NC(=O)c1cc2ccccc2n1C + N=C(N)NC(=N)NCCc1ccccc1 [Phenformin] (partner 250 µM)
Outline: (§1)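 Relative viability is defined as nuclei in treated wells over nuclei in vehicle wells. Duplicate plates were run and medians reported. Lung cancer cell lines in 1536-well plates were dosed by pin tool one day after seeding, with one drug or with a fixed anchor-drug dose plus five library-drug doses (not always all listed) in √10 steps, and nuclei were counted after 5 days.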

[2] = compound: CO[C@@H]1[C@H](N(C)C(=O)c2ccccc2)C[C@H]2O[C@]1(C)n1c3ccccc3c3c4c(c5c6ccccc6n2c5c31)C(=O)NC4 [Midostaurin] + CC1(C)CCC(c2ccc(Cl)cc2)=C(CN2CCN(c3ccc(C(=O)NS(=O)(=O)c4ccc(N[C@H](CCN5CCOCC5)CSc5ccccc5)c(S(=O)(=O)C(F)(F)F)c4)cc3)CC2)C1 [Navitoclax] (partner 0.5 µM)
Outline: as §1

[3] = compound: CO[C@@H]1[C@H](N(C)C(=O)c2ccccc2)C[C@H]2O[C@]1(C)n1c3ccccc3c3c4c(c5c6ccccc6n2c5c31)C(=O)NC4 [Midostaurin] + N=C(N)NC(=N)NCCc1ccccc1 [Phenformin] (partner 250 µM)
Outline: as §1

[4] = compound: CO[C@@H]1[C@H](N(C)C(=O)c2ccccc2)C[C@H]2O[C@]1(C)n1c3ccccc3c3c4c(c5c6ccccc6n2c5c31)C(=O)NC4 [Midostaurin]
Outline: (§2)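 Only plates meeting two conditions passed: control CV below 25% and at least one doubling. Lung cancer cell lines, kept overnight at 37 °C in 1536-well plates, were pinned with five library-drug doses (not always all listed) √10 apart on vehicle-anchored plates and grown 5 days without medium change. A one-step fix, permeabilisation and Hoechst stain preceded 4× imaging and MetaXpress nuclear counting. Viability equals treated-well nuclei divided by vehicle-well nuclei, as the median over plates.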

[5] = compound: COc1cc(-c2nn([C@H]3CC[C@H](N4CCN(C(C)=O)CC4)CC3)c3ncnc(N)c23)ccc1NC(=O)c1cc2ccccc2n1C
Outline: as §2

Row | Cell Line | relative viability ([1]; first compound 0.0128 µM) | relative viability ([1]; first compound 0.04048 µM) | relative viability ([1]; first compound 0.128 µM) | relative viability ([1]; first compound 1.28 µM) | relative viability ([2]; first compound 0.01 µM) | relative viability ([2]; first compound 0.03162 µM) | relative viability ([2]; first compound 0.1 µM) | relative viability ([2]; first compound 0.3162 µM) | relative viability ([3]; first compound 0.01 µM) | relative viability ([3]; first compound 0.03162 µM) | relative viability ([3]; first compound 0.1 µM) | relative viability ([3]; first compound 0.3162 µM) | relative viability ([4]; 0.01 µM) | relative viability ([4]; 0.03162 µM) | relative viability ([4]; 0.1 µM) | relative viability ([4]; 0.3162 µM) | relative viability ([5]; 0.0128 µM) | relative viability ([5]; 0.04048 µM) | relative viability ([5]; 0.128 µM) | relative viability ([5]; 1.28 µM)
1 | NCI-H1395 | 0.419 | 0.461 | 0.431 | 0.395 | 1.11 | 1.09 | 1.17 | 1.25 | 0.459 | 0.459 | 0.488 | 0.523 | 0.919 | 0.977 | 0.88 | 0.922 | 0.907 | 0.847 | 0.798 | 0.659
2 | NCI-H2126 | 0.534 | 0.501 | 0.539 | 0.435 | 0.92 | 0.826 | 0.824 | 0.903 | 0.519 | 0.467 | 0.565 | 0.564 | 1.02 | 0.872 | 0.999 | 1.02 | 1.04 | 1.01 | 0.963 | 0.792
3 | LXF-289 | 0.545 | 0.497 | 0.492 | 0.46 | 0.954 | 0.92 | 0.875 | 0.968 | 0.519 | 0.51 | 0.49 | 0.505 | 1.03 | 1.01 | 0.973 | 1.03 | 1.11 | 0.989 | 1.01 | 1.06
4 | NCI-H2009 | 0.517 | 0.433 | 0.511 | 0.515 | 1.16 | 1.14 | 1.03 | 1.15 | 0.428 | 0.464 | 0.48 | 0.372 | 0.972 | 0.904 | 0.961 | 0.939 | 1.01 | 0.861 | 0.927 | 0.973
5 | NCI-H2405 | 0.408 | 0.272 | 0.409 | 0.28 | 0.921 | 1.04 | – | 0.655 | 0.415 | 0.441 | 0.377 | 0.491 | 1.01 | 1.05 | 0.883 | 1.07 | 1.06 | 0.667 | 0.964 | 0.526
6 | NCI-H1755 | 0.647 | 0.547 | 0.592 | 0.614 | 0.966 | 0.927 | 0.828 | 0.627 | 0.631 | 0.621 | 0.609 | 0.592 | 0.983 | 0.983 | 0.962 | 0.977 | 1.12 | 0.983 | 0.937 | 0.938
7 | HCC-78 | 0.734 | 0.789 | 0.601 | 0.37 | 0.835 | 0.638 | 0.815 | 0.341 | 0.797 | 0.603 | 0.693 | 0.462 | 1.01 | 0.814 | 1.03 | 0.606 | 1.06 | 1.06 | 0.912 | 0.567
8 | LOU-NH91 | 0.768 | 0.778 | 0.808 | 0.649 | 0.753 | 0.702 | 0.729 | 0.825 | 0.755 | 0.701 | 0.764 | 0.798 | 1.02 | 0.89 | 0.967 | 1 | 0.985 | 1.04 | 0.978 | 0.853
9 | NCI-H3122 | 0.397 | 0.35 | 0.359 | 0.27 | 1.07 | 0.993 | 1.03 | 1.04 | 0.376 | 0.369 | 0.372 | 0.363 | 1.03 | 0.962 | 0.95 | 1.05 | 1.07 | – | 0.987 | 0.76
10 | HCC-827 | 0.384 | 0.396 | 0.406 | 0.39 | 1.03 | 0.987 | 0.958 | 1.1 | 0.364 | 0.369 | 0.449 | 0.422 | 1.02 | 1.04 | 0.972 | 1.04 | 0.98 | 1.03 | 0.957 | 0.753
11 | SK-LU-1 | 0.588 | 0.425 | 0.48 | 0.338 | 0.703 | 0.704 | 0.808 | 0.886 | 0.521 | 0.54 | 0.49 | 0.421 | 0.976 | 1.05 | 1.02 | 0.953 | 1.08 | 0.994 | 0.864 | 0.597
12 | NCI-H1975 | 0.393 | 0.392 | 0.385 | 0.254 | 1.13 | 1.07 | 1.04 | 0.818 | 0.425 | 0.418 | 0.39 | 0.397 | 0.888 | 0.971 | 0.878 | 0.799 | 0.958 | 0.972 | 0.875 | 0.479
13 | NCI-H1651 | 0.352 | 0.329 | 0.3 | 0.31 | 1.01 | 1.07 | 0.897 | 0.898 | 0.377 | 0.4 | 0.327 | 0.299 | 0.95 | 1 | 1.01 | 1.09 | 0.97 | 1.07 | 0.923 | 0.968
14 | NCI-H441 | 0.855 | 0.757 | 0.849 | 0.812 | 0.402 | 0.832 | 0.522 | 0.554 | 0.914 | 0.773 | 0.747 | 0.768 | 0.954 | 1.03 | 0.874 | 0.902 | 1.03 | 0.976 | 0.922 | 0.84
15 | LCLC-97TM1 | 0.501 | 0.377 | 0.461 | 0.416 | 0.467 | – | 0.393 | 0.508 | 0.434 | 0.324 | 0.38 | 0.415 | 1.02 | 0.867 | 1.06 | 1.17 | 0.943 | 0.879 | 0.946 | 0.931
16 | NCI-H727 | 0.559 | – | 0.495 | 0.619 | 0.41 | 0.368 | 0.361 | 0.4 | 0.545 | 0.437 | 0.665 | 0.538 | 1.03 | 0.82 | 1.05 | 0.767 | 0.974 | – | 0.826 | 0.906
17 | NCI-H1355 | 0.476 | 0.401 | 0.459 | 0.41 | 0.966 | 0.924 | 1.01 | 0.847 | 0.43 | 0.443 | 0.464 | 0.465 | 1 | 0.948 | 1.09 | 1.04 | 1.06 | 0.981 | 0.943 | 0.953
18 | HOP-62 | 0.712 | 0.657 | 0.656 | 0.709 | 0.928 | 0.981 | 0.957 | 1.04 | 0.586 | 0.66 | 0.69 | 0.646 | 0.88 | 0.893 | 1.06 | 1.1 | 1.11 | 0.962 | 1.03 | 1.12
19 | NCI-H2085 | 0.756 | 0.655 | 0.781 | 0.654 | 1.16 | 1.06 | 1.02 | 0.757 | 0.718 | 0.627 | 0.749 | 0.583 | 1.06 | 0.889 | 1.02 | 0.919 | 1.01 | 1.01 | 0.99 | 0.992
